Data reported in patent US10463671B2, “Combination therapy for treating cancer” (Epizyme, Inc., priority 2013, dated 2019).
Where two headings read alike, the source gives them in different places.

Tests used:
SU-DHL6 cells = test: Medium throughput combination proliferation assay (CellTiter-Glo, Chou-Talalay CI / potency shift); assay type: cell-based; settings: SU-DHL6 (EZH2 Mutant GCB); drug combined with Compound 44
WSU-DLCL2 cells = test: as above; settings: for Summary of Combinations with Compound 44: WSU-DLCL2 (EZH2 Mutant GCB), drug combined with Compound 44; for growth inhibition by the drug by itself: WSU-DLCL2 (EZH2 mutant), single agent
SU-DHL-10 cells = test: as above; settings: for Summary of Combinations with Compound 44: SU-DHL10 (EZH2 Mutant GCB), drug combined with Compound 44; for growth inhibition by the drug by itself: SU-DHL10 (EZH2 mutant)
DOHH2 cells = test: as above; settings: for Summary of Combinations with Compound 44: DOHH2 (EZH2 WT GCB), drug combined with Compound 44
Toledo cells = test: as above; settings: for Summary of Combinations with Compound 44: Toledo (EZH2 WT GCB), drug combined with Compound 44
[1] = tested on: Sestrin 1 (SESN1), TNF and GILZ expression; settings: all cell lines; 4 days
Description: Gene expression was normalized to array's B2M and fold change compared to DMSO was calculated using the ΔΔCt method.

H3K27 acetylation levels = settings: WSU-DLCL2, OCI-LY19, RL cells; 4 days
Description: Acid extracted histones were analyzed by western blot for H3K27 acetylation levels.

H3K27Me3 levels = settings: single agent, four day treatment
SU-DHL-5 cells = test: Medium throughput combination proliferation assay (CellTiter-Glo, Chou-Talalay CI / potency shift)
OCI-LY19 cells = test: as above

CC[C@]1(O)C[C@H]2CN(CCc3c([nH]c4ccccc34)[C@@](C(=O)OC)(c3cc4c(cc3OC)N(C=O)[C@H]3[C@@](O)(C(=O)OC)[C@H](OC(C)=O)[C@]5(CC)C=CCN6CC[C@]43[C@@H]65)C2)C1 [Vincristine]
Summary of Combinations with Compound 44 (SU-DHL6 cells): Additive
Summary of Combinations with Compound 44 (WSU-DLCL2 cells): Additive
Summary of Combinations with Compound 44 (WSU-DLCL2 cells; listed as vincristine): Combination benefit
growth inhibition by the drug by itself (WSU-DLCL2 cells): concentration-dependent growth inhibition
Summary of Combinations with Compound 44 (SU-DHL-10 cells): Additive
Summary of Combinations with Compound 44 (SU-DHL-10 cells; listed as vincristine): Combination benefit
growth inhibition by the drug by itself (SU-DHL-10 cells; single agent): concentration-dependent growth inhibition
Summary of Combinations with Compound 44 (DOHH2 cells): No effect
Summary of Combinations with Compound 44 (Toledo cells): No effect

C[C@]12C=CC(=O)C=C1CC[C@@H]1[C@@H]2[C@@H](O)C[C@@]2(C)[C@H]1CC[C@]2(O)C(=O)CO [Prednisolone]
Summary of Combinations with Compound 44 (SU-DHL6 cells): Synergy
TSC22D3/GILZ expression [1]: up-regulated
global H3K27 acetylation levels (H3K27 acetylation levels): not affected
H3K27Me3 levels (H3K27Me3 levels; OCI-LY19 cells): increase H3K27Me3 levels at higher doses
H3K27Me3 levels (H3K27Me3 levels; RL cells): no effect
H3K27Me3 levels (H3K27Me3 levels; WSU-DLCL2 cells): no effect
Summary of Combinations with Compound 44 (WSU-DLCL2 cells): Synergy
growth inhibition by the drug by itself (WSU-DLCL2 cells): no sensitivity
1/α (WSU-DLCL2 cells; WSU-DLCL2, combination with Compound 44): 9.7
Summary of Combinations with Compound 44 (SU-DHL-10 cells): Synergy
growth inhibition by the drug by itself (SU-DHL-10 cells; single agent): no sensitivity
1/α (SU-DHL-10 cells; SU-DHL-10, combination with Compound 44): 4.2
IC50 (SU-DHL-10 cells; read-out: Potency (IC50), SU-DHL-10 (GCB sub-type EZH2 Y646F), single agent, after 3 days of dosing): > 1000 nM
Summary of Combinations with Compound 44 (DOHH2 cells): Synergy
1/α (DOHH2 cells; DOHH2, combination with Compound 44, data normalized to individual 6438 concentrations instead of DMSO): 9.5
potency of the glucocorticoid agonist with addition of Compound 44 (DOHH2 cells; DOHH2 EZH2 wild-type cells): increased
IC50 (DOHH2 cells; read-out: Potency (IC50), DOHH-2 (GCB sub-type WT EZH2), single agent, after 3 days of dosing): 133 nM
IC50 (SU-DHL-5 cells; Homo sapiens, SU-DHL-5, 72 h, read-out: Potency (IC50)): 39 nM
Summary of Combinations with Compound 44 (SU-DHL-5 cells; SU-DHL5 (EZH2 WT GCB), drug combined with Compound 44): Synergy
1/α (SU-DHL-5 cells; SU-DHL-5, combination with Compound 44): 7.6
IC50 (OCI-LY19 cells; Homo sapiens, OCI-LY19, 72 h, read-out: Potency (IC50)): 47 nM
1/α (OCI-LY19 cells; OCI-LY19, combination with Compound 44): 4.2
Summary of Combinations with Compound 44 (OCI-LY19 cells; OCI-LY-19 (EZH2 WT GCB), drug combined with Compound 44): Synergy
Summary of Combinations with Compound 44 (Toledo cells): No effect
1/α (Toledo cells; Toledo, combination with Compound 44): No effect
IC50 (Toledo cells; read-out: Potency (IC50), Toledo, single agent, dosed for 5 days): > 1000 nM
